US20260176282A1, “BICYCLIC COMPOUNDS AS CDK INHIBITORS” (BEONE MEDICINES I GMBH, priority 2023, published 2026)
Read-outs that look alike come from different tables or passages of the source.

What was measured:
CDK2/Cyclin E1 = CDK2/Cyclin E1 (Homo sapiens, UniProt P24941); assay: CDK2/Cyclin E1 TR-FRET biochemical assay (1 mM ATP); settings: 90 minutes reaction
Procedure: (§1) Compounds disclosed herein were tested for inhibition of CDK2/Cyclin E1 or CDK1/Cyclin B1 kinase in an assay based on the time-resolved fluorescence-resonance energy transfer (TR-FRET) methodology. The assay was carried out in 384-well low volume black plates in a reaction mixture containing CDK2/Cyclin E1 or CDK1/Cyclin B1, 1 mM ATP for CDK2/Cyclin E1 and CDK1/Cyclin B1, 0.15 μM Rb (Ser780)-biotin substrate and 0-10 μM compound in buffer containing 50 mM HEPES pH7.0, 0.02% NaN3, 0.01% BSA, 0.1 mM Orthovanadate, 50 mM MgCl2, 1 mM DTT and 0.005% Tween-20. The kinase was incubated with compound for 60 minutes at room temperature and the reaction was initiated by the addition of ATP and Rb (Ser780)-biotin substrate. After reaction at room temperature for 90 minutes, an equal volume of stop/detection solution was added according to the manufacture's instruction (Cisbio Bioassays). The stop/detection solution contained Streptavidin-XL665 and Anti-pRb (Ser780) mAb-Eu Cryptate in Detection buffer (Cisbio Bioassays). Plates were incubated at room temperature for 60 minutes, and the TR-FRET signals (ex337 nm, em665 nm/620 nm) were recorded on a PHERAstar FSX plate reader (BMG Labtech). The inhibition percentage of CDK2/Cyclin E1 or CDK1/Cyclin B1 kinase activity in presence of increasing concentrations of compounds was calculated based on the ratio of fluorescence at 665 nm to that at 620 nm. The IC50 for each compound was derived from fitting the data to the four-parameter logistic equation by Dotmatics.

CDK1/Cyclin B1 = CDK1/Cyclin B1 (Homo sapiens, UniProt P06493); assay: CDK1/Cyclin B1 TR-FRET biochemical assay (1 mM ATP); settings: 90 minutes reaction
Chain of CDK1/Cyclin B1 (P06493 whole entry): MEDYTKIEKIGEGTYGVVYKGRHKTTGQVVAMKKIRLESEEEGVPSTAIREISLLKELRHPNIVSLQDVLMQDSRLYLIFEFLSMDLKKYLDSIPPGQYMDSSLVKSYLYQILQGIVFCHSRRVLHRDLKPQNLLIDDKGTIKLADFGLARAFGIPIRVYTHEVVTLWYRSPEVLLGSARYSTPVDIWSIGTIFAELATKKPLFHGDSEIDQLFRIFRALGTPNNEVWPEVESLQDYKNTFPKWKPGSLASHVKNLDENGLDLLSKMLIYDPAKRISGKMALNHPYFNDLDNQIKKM
Chain of CDK1/Cyclin B1 (P14635 whole entry partner): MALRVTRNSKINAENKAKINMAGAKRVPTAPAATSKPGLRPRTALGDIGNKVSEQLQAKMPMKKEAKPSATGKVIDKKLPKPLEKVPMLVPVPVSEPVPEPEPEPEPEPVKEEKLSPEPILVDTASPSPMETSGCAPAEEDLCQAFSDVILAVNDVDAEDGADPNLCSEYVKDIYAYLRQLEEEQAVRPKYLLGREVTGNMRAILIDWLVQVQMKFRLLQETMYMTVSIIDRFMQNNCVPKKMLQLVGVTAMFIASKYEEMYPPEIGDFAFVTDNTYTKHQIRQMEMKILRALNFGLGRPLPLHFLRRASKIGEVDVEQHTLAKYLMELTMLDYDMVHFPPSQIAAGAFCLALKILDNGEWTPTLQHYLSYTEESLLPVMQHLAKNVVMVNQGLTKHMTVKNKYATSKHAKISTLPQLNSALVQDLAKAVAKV
Procedure: as §1

HEK-293 cells = assay: HEK-293 cell cytotoxicity detection (CellTiter-Glo); format: cell-based; settings: incubation of 72 h, CellTiter-Glo luminescence
Procedure: HEK-293 cells were treated with compounds diluted in 0.4% DMSO, dilution was done according to the following protocol: (1) making 250× stock solution in DMSO from 10 mM by 4-fold dilution, total 8 doses were included; (2) making 2 solution in cell culture medium by transferring 1 μl 250× stock solution into 124 μl medium; (3) adding 50 μl of 2× solution to cells for incubation of 72 h.
25 μl of the CellTiter-Glo® Reagent [(PromegaCat #G9242)] was added to each well in the 96-well plate. The contents were mixed for 2 minutes on an orbital shaker to induce cell lysis. The plate was then allowed to incubate at room temperature for 10 minutes to stabilize luminescent signal. Luminescence was recorded on BMG PheraStar with luminescence protocol.
The IC50 value of a compound can be obtained by fitting the following equation: […]
Wherein, X and Y are known values, and IC50, Hillslope, Top and Bottom are the parameters obtained by fitting with software. Y is the inhibition percentage (calculated from the equation), X is the concentration of the compound; IC50 is the concentration of the compound when the 50% inhibition is reached. The smaller the IC50 value is, the stronger the inhibitory ability of the compound is. Vice versa, the higher the IC50 value is, the weaker the ability the inhibitory ability of the compound is; Hillslope represents the slope of the fitted curve, generally around 1*; Bottom represents the minimum value of the curve obtained by data fitting, which is generally 0%±20%; Top represents the maximum value of the curve obtained by data fitting, which is generally 100%±20%. The experimental data were fitted by calculating and analyzing with Dotmatics data analysis software.

Structure (SMILES) | IC50 (CDK2/Cyclin E1) [µM] | IC50 (CDK1/Cyclin B1) [µM] | IC50 (HEK-293 cells; read-out: HEK293 IC50) [µM] | IC50 (HEK-293 cells; Homo sapiens, HEK293, 72 h) [µM]
CC(C)NC(=O)O[C@H]1CC[C@@H](c2cc(Nc3ccc4c(c3F)CSC4)n[nH]2)C1 (relative stereo) [Example 33, cis-3-(3-((4-fluoro-1,3-dihydrobenzo[c]thiophen-5-yl)amino)-1H-pyrazol-5-yl)cyclopentyl isopropylcarbamate] | 0.022 | 4.88 | – | > 10
Cc1c(Nc2cc([C@@H]3CC[C@H](OC(=O)NC(C)C)C3)[nH]n2)ccc2c1CS(=O)(=O)C2 (relative stereo) [Example 35, cis-3-(3-((4-methyl-2,2-dioxido-1,3-dihydrobenzo[c]thiophen-5-yl)amino)-1H-pyrazol-5-yl)cyclopentyl isopropylcarbamate] | 0.0004 | 0.169 | – | 0.739
O=C(N[C@H]1CC[C@H](O)CC1)OC1CCC(c2cc(Nc3ccc4c(c3F)CS(=O)(=O)C4)n[nH]2)C1 (stereo partly drawn) [Example 26, cis-3-(3-((4-fluoro-2,2-dioxido-1,3-dihydrobenzo[c]thiophen-5-yl)amino)-1H-pyrazol-5-yl)cyclopentyl ((1r,4r)-4-hydroxycyclohexyl)carbamate] | 0.0015 | 0.376 | – | 0.998
O=C(NCCC(F)(F)F)O[C@H]1CC[C@@H](c2cc(Nc3ccc4c(c3F)CS(=O)(=O)C4)n[nH]2)C1 (relative stereo) [Example 16, cis-3-(3-((4-fluoro-2,2-dioxido-1,3-dihydrobenzo[c]thiophen-5-yl)amino)-1H-pyrazol-5-yl)cyclopentyl (3,3,3-trifluoropropyl)carbamate] | 0.0007 | 0.155 | – | 0.687
CCN(C)C(=O)O[C@H]1CC[C@@H](c2cc(Nc3ccc4c(c3F)CS(=O)(=O)C4)n[nH]2)C1 (relative stereo) [Example 32, cis-3-(3-((4-fluoro-2,2-dioxido-1,3-dihydrobenzo[c]thiophen-5-yl)amino)-1H-pyrazol-5-yl)cyclopentyl ethyl(methyl)carbamate] | 0.0042 | 0.493 | – | > 10
O=C(NCC(F)(F)F)O[C@H]1CC[C@@H](c2cc(Nc3ccc4c(c3F)CS(=O)(=O)C4)n[nH]2)C1 (relative stereo) [Example 22, cis-3-(3-((4-fluoro-2,2-dioxido-1,3-dihydrobenzo[c]thiophen-5-yl)amino)-1H-pyrazol-5-yl)cyclopentyl (2,2,2-trifluoroethyl)carbamate] | 0.0045 | 1.05 | – | > 10
CC(C)NC(=O)O[C@H]1CC[C@@H](c2cc(Nc3cc4c(cc3F)CS(=O)(=O)C4)n[nH]2)C1 (relative stereo) [Example 27, cis-3-(3-((6-fluoro-2,2-dioxido-1,3-dihydrobenzo[c]thiophen-5-yl)amino)-1H-pyrazol-5-yl)cyclopentyl isopropylcarbamate] | 0.033 | 7.45 | – | > 10
Cc1cc2c(cc1Nc1cc([C@@H]3CC[C@H](OC(=O)NC(C)C)C3)[nH]n1)CS(=O)(=O)C2 (relative stereo) [Example 28, cis-3-(3-((6-methyl-2,2-dioxido-1,3-dihydrobenzo[c]thiophen-5-yl)amino)-1H-pyrazol-5-yl)cyclopentyl isopropylcarbamate] | 0.0094 | 2.9 | – | > 10
O=C(NC1CCCC1)O[C@H]1CC[C@@H](c2cc(Nc3ccc4c(c3F)CS(=O)(=O)C4)n[nH]2)C1 (relative stereo) [Example 23, cis-3-(3-((4-fluoro-2,2-dioxido-1,3-dihydrobenzo[c]thiophen-5-yl)amino)-1H-pyrazol-5-yl)cyclopentyl cyclopentylcarbamate] | 0.0009 | 0.41 | – | 2.86
CC(C)NC(=O)O[C@H]1CC[C@@H](c2cc(Nc3ccc4c(c3F)C[S+]([O-])C4)n[nH]2)C1 (relative stereo) [Example 31, cis-3-(3-((4-fluoro-2-oxido-1,3-dihydrobenzo[c]thiophen-5-yl)amino)-1H-pyrazol-5-yl)cyclopentyl isopropylcarbamate] | 0.0053 | 3.36 | – | 1.57
O=C(N[C@H]1CC[C@@H](O)CC1)OC1CCC(c2cc(Nc3ccc4c(c3F)CS(=O)(=O)C4)n[nH]2)C1 (stereo partly drawn) [Example 17, cis-3-(3-((4-fluoro-2,2-dioxido-1,3-dihydrobenzo[c]thiophen-5-yl)amino)-1H-pyrazol-5-yl)cyclopentyl ((1s,4s)-4-hydroxycyclohexyl)carbamate] | 0.0023 | 0.824 | – | 0.991

Further lines, with some results ahead:

IC50 (CDK2/Cyclin E1) [µM] | IC50 (CDK1/Cyclin B1) [µM] | Structure (SMILES) | IC50 (HEK-293 cells; read-out: HEK293 IC50) [µM] | IC50 (HEK-293 cells; Homo sapiens, HEK293, 72 h) [µM]
0.0005 | 0.208 | CC1(NC(=O)OC2CCC(c3cc(Nc4ccc5c(c4F)CS(=O)(=O)C5)n[nH]3)C2)CCOC1 (single isomer, unassigned) [Example 13c, cis-3-(3-((4-fluoro-2,2-dioxido-1,3-dihydrobenzo[c]thiophen-5-yl)amino)-1H-pyrazol-5-yl)cyclopentyl (3-methyltetrahydrofuran-3-yl)carbamate] | 1.72 | –
0.0052 | 1.3 | CCNC(=O)OC1CCC(c2cc(Nc3ccc4c(c3F)CS(=O)(=O)C4)n[nH]2)C1 (single isomer, unassigned) [Example 18a, cis-3-(3-((4-fluoro-2,2-dioxido-1,3-dihydrobenzo[c]thiophen-5-yl)amino)-1H-pyrazol-5-yl)cyclopentyl ethylcarbamate] | > 10 | –
0.002 | 0.505 | CC1(NC(=O)OC2CCC(c3cc(Nc4ccc5c(c4F)CS(=O)(=O)C5)n[nH]3)C2)COC1 (single isomer, unassigned) [Example 15b, cis-3-(3-((4-fluoro-2,2-dioxido-1,3-dihydrobenzo[c]thiophen-5-yl)amino)-1H-pyrazol-5-yl)cyclopentyl (3-methyloxetan-3-yl)carbamate] | 9.9 | –
0.0009 | 0.322 | CC1(NC(=O)OC2CCC(c3cc(Nc4ccc5c(c4F)CS(=O)(=O)C5)n[nH]3)C2)CCOC1 (single isomer, unassigned) [Example 13d, cis-3-(3-((4-fluoro-2,2-dioxido-1,3-dihydrobenzo[c]thiophen-5-yl)amino)-1H-pyrazol-5-yl)cyclopentyl (3-methyltetrahydrofuran-3-yl)carbamate] | 4.21 | –
0.0006 | 0.353 | CC1(NC(=O)OC2CCC(c3cc(Nc4ccc5c(c4F)CS(=O)(=O)C5)n[nH]3)C2)CCOC1 (single isomer, unassigned) [Example 13b, cis-3-(3-((4-fluoro-2,2-dioxido-1,3-dihydrobenzo[c]thiophen-5-yl)amino)-1H-pyrazol-5-yl)cyclopentyl (3-methyltetrahydrofuran-3-yl)carbamate] | 0.559 | –
0.0052 | 0.555 | CCNC(=O)OC1CCC(c2cc(Nc3ccc4c(c3F)CS(=O)(=O)C4)n[nH]2)C1 (single isomer, unassigned) [Example 18b, cis-3-(3-((4-fluoro-2,2-dioxido-1,3-dihydrobenzo[c]thiophen-5-yl)amino)-1H-pyrazol-5-yl)cyclopentyl ethylcarbamate] | 0.522 | –
0.0019 | 1.09 | CC1(NC(=O)OC2CCC(c3cc(Nc4ccc5c(c4F)CS(=O)(=O)C5)n[nH]3)C2)COC1 (single isomer, unassigned) [Example 15a, cis-3-(3-((4-fluoro-2,2-dioxido-1,3-dihydrobenzo[c]thiophen-5-yl)amino)-1H-pyrazol-5-yl)cyclopentyl (3-methyloxetan-3-yl)carbamate] | – | > 10
